# From patent US20250326749A1, “COMPOUNDS, COMPOSITIONS, AND METHODS OF USING THEREOF” (Sionna Therapeutics Inc., priority 2022, published 2025)
# Target: T1, ΔF508-CFTR (Homo sapiens, UniProt P13569, DEL508-508)
# T1 construct: expressed in transfected cells; host or cells: CFSMEo- (human CF submucosal gland epithelial cells, ΔF508/Q2X), transiently transfected by nucleofection
# Test: ΔF508-CFTR-HRP trafficking assay (cell surface expression of ΔF508-CFTR)
# Assay type: cell-based
# Conditions: CFSMEo- cells transiently transfected with ΔF508-CFTR-HRP; test agent 3 μM, 48 h; HRP chemiluminescence
# From the text: Test agents were screened for their effect on cell surface expression of ΔF508-CFTR using the ΔF508-CFTR-HRP trafficking assay. For this assay, a ΔF508-CFTR expression construct was designed with an in-frame insertion of a horseradish peroxidase (HRP) tag into the 4th extracellular loop of CFTR. The HRP tag would be presented extracellularly, in cells transiently transfected with the ΔF508-CFTR-HRP construct, following correction of the ΔF508-CFTR trafficking defect. The quantity of ΔF508-CFTR-HRP expressed on the plasma membrane could therefore be determined by measuring an HRP-dependent signal after the application of a cell-impermeable HRP substrate.
# In brief, CF submucosal gland epithelial cells (CFSMEo-), derived from the airways of a CF patient (ΔF508/Q2X) and provided by Dr. Dieter Gruenert, University of California-San Francisco, were cultured at 37° C. with 5% CO2 in minimum essential medium (MEM) with Earle's salt and nonessential amino acids, supplemented with 10% (volume per volume [v/v]) fetal bovine serum, 2 mM L-glutamine and 1× (v/v) penicillin/streptomycin and grown in tissue culture-treated flasks coated with an extracellular matrix (ECM) cocktail consisting of 10 μg/mL human fibronectin, 30 μg/mL bovine collagen type I, and 100 μg/mL bovine serum albumin in LHC basal medium. These CFSMEo^− cells were transiently transfected with 4 μg of the ΔF508-CFTR-HRP expression construct using the Lonza 4D-Nucleofector Core unit (Lonza, Catalogue No. AAF-1002B) with the X unit (Lonza, Catalogue No. AAF-1002X) and SF Cell Line 4D-Nucleofector X Kit L (Lonza, Catalogue No. V4XC-2024) according to the manufacturer's instructions and plated at 1.2×10^4 cells/well onto collagen-coated, 96-well plates (Corning Inc.). Twenty-four h post-transfection, cells were treated with test agents, solubilized in DMSO at a concentration of 3 μM in replicates of 3, and allowed to incubate for 48 h. To detect HRP expression, cell culture media was removed, cells were washed with PBS and 100 μL of Luminata Forte HRP chemiluminescent substrate (EMD Millipore, Burlington, MA) was added to each well. Following a 5-minute incubation, chemiluminescence was measured in relative luminescent units (RLUs) using an EnVision plate reader (Perkin Elmer, Waltham, MA).
# The ΔF508-CFTR-HRP trafficking data was normalized to the vehicle treated control (0.3% DMSO), followed by calculation of the mean, standard deviation, and standard error. If the test agent increased cell surface expression of ΔF508-CFTR-HRP relative to the vehicle-treated control, then that test agent was considered a ΔF508-CFTR corrector. Based on the description above, the biological activity of the examples in this disclosure is collected in Table 2.
# T1 sequence (P13569 with tags, fused parts or gaps DEL508-508): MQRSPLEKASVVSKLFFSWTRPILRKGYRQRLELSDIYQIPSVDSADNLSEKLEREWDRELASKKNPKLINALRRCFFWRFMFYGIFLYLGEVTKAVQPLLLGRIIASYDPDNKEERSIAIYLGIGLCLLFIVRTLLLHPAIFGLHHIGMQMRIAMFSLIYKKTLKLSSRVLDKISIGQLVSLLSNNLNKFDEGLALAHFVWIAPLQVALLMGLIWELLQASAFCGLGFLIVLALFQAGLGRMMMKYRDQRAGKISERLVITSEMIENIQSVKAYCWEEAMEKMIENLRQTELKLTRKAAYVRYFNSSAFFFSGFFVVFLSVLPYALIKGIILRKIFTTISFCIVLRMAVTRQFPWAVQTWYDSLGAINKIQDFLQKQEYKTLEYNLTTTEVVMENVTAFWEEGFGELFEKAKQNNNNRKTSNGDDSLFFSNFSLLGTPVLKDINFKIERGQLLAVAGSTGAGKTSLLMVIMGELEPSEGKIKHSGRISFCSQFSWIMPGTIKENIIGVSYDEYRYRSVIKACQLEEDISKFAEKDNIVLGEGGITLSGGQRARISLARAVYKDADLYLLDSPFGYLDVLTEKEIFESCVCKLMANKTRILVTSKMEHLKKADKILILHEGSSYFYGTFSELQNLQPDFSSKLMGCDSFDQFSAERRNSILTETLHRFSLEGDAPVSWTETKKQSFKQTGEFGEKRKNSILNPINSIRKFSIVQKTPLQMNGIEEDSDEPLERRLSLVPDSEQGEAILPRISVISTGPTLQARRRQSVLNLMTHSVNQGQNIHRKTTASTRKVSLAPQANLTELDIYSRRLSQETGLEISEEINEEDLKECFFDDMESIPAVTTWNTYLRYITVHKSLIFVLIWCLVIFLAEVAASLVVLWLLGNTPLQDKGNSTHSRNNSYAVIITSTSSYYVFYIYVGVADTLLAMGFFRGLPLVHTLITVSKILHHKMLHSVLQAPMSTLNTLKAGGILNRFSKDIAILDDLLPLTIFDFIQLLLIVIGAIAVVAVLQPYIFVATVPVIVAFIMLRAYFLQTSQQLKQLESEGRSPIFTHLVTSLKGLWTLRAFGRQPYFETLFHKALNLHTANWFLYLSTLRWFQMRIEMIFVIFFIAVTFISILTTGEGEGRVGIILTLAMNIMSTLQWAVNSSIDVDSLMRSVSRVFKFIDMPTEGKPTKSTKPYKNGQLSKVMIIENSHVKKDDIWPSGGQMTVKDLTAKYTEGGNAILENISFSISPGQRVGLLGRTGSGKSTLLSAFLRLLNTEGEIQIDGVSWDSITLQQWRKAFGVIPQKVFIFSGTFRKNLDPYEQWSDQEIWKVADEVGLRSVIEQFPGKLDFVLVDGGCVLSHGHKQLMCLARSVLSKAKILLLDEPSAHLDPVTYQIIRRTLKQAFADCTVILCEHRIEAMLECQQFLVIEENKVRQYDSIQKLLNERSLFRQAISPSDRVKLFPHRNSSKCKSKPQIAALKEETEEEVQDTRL
row,SMILES,RLUs: ΔF508-CFTR-HRP trafficking data normalized to the vehicle treated control (0.3% DMSO)
1,"C[C@H](Nc1cc(-n2nc(C(F)(F)F)c3c2[C@H](OC24CC(C(=O)O)(C2)C4)CCC3)ccc1F)c1cc2c(cc1F)OC(F)(F)O2 (single isomer, unassigned) [96 (P2)]",C (RLU 0.0 μM-3.5 μM)
2,"C[C@H](Nc1cccc(-n2nc(C(F)(F)F)c3c2[C@@H](OC24CC(C(=O)O)(C2)C4)CCC3)c1)c1cc2c(cc1F)OC(F)(F)O2 (single isomer, unassigned) [97 (P1)]",C (RLU 0.0 μM-3.5 μM)
3,"C[C@H](Nc1cccc(-n2nc(C(F)(F)F)c3c2[C@H](OC24CC(C(=O)O)(C2)C4)CCC3)c1)c1cc2c(cc1F)OC(F)(F)O2 (single isomer, unassigned) [97 (P2)]",C (RLU 0.0 μM-3.5 μM)
4,"C[C@H](Nc1ccc(F)c(-n2nc(C(F)(F)F)c3c2[C@@H](OC24CC(C(=O)O)(C2)C4)CCC3)c1)c1cc2c(cc1F)OC(F)(F)O2 (single isomer, unassigned) [98 (P1)]",C (RLU 0.0 μM-3.5 μM)
5,"C[C@H](Nc1ccc(F)c(-n2nc(C(F)(F)F)c3c2[C@H](OC24CC(C(=O)O)(C2)C4)CCC3)c1)c1cc2c(cc1F)OC(F)(F)O2 (single isomer, unassigned) [98 (P2)]",C (RLU 0.0 μM-3.5 μM)
6,"C[C@H](Nc1ccc(F)c(-n2nc(C(F)(F)F)c3c2[C@@H](OC24CC(C(=O)O)(C2)C4)CCC3)c1)c1ccc2c(c1)OC(F)(F)O2 (single isomer, unassigned) [99 (P1)]",C (RLU 0.0 μM-3.5 μM)
7,"C[C@H](Nc1ccc(F)c(-n2nc(C(F)(F)F)c3c2[C@H](OC24CC(C(=O)O)(C2)C4)CCC3)c1)c1ccc2c(c1)OC(F)(F)O2 (single isomer, unassigned) [99 (P2)]",C (RLU 0.0 μM-3.5 μM)
8,"C[C@H](Nc1cccc(-n2nc(C(F)(F)F)c3c2[C@@H](OC24CC(C(=O)O)(C2)C4)CCC3)n1)c1ccc2c(c1)OC(F)(F)O2 (single isomer, unassigned) [100 (P1)]",A (RLU 5.0 μM-10 μM)
9,"C[C@H](Nc1cccc(-n2nc(C(F)(F)F)c3c2[C@H](OC24CC(C(=O)O)(C2)C4)CCC3)n1)c1ccc2c(c1)OC(F)(F)O2 (single isomer, unassigned) [100 (P2)]",C (RLU 0.0 μM-3.5 μM)
10,"C[C@H](Nc1nc(-n2nc(C(F)(F)F)c3c2[C@@H](OC24CC(C(=O)O)(C2)C4)CCC3)ccc1F)c1ccc2c(c1)OC(F)(F)O2 (single isomer, unassigned) [101 (P1)]",C (RLU 0.0 μM-3.5 μM)
11,"C[C@H](Nc1nc(-n2nc(C(F)(F)F)c3c2[C@H](OC24CC(C(=O)O)(C2)C4)CCC3)ccc1F)c1ccc2c(c1)OC(F)(F)O2 (single isomer, unassigned) [101 (P2)]",C (RLU 0.0 μM-3.5 μM)
12,"C[C@H](Nc1cc(-n2nc(C(F)(F)F)c3c2[C@@H](OC24CC(c5nc(=O)o[nH]5)(C2)C4)CCC3)ccc1F)c1ccc2c(c1)OC(F)(F)O2 (single isomer, unassigned) [102 (P1)]",C (RLU 0.0 μM-3.5 μM)
13,"C[C@H](Nc1cc(-n2nc(C(F)(F)F)c3c2[C@H](OC24CC(c5nc(=O)o[nH]5)(C2)C4)CCC3)ccc1F)c1ccc2c(c1)OC(F)(F)O2 (single isomer, unassigned) [102 (P2)]",B (RLU 3.5 μM-5.0 μM)
14,"C[C@H](Nc1cc(-n2nc(C(F)(F)F)c3c2[C@@H](OC24CC(c5nc(=O)o[nH]5)(C2)C4)CCC3)ccc1F)c1cc2c(cc1F)OC(F)(F)O2 (single isomer, unassigned) [103 (P1)]",B (RLU 3.5 μM-5.0 μM)
15,"C[C@H](Nc1cc(-n2nc(C(F)(F)F)c3c2[C@H](OC24CC(c5nc(=O)o[nH]5)(C2)C4)CCC3)ccc1F)c1cc2c(cc1F)OC(F)(F)O2 (single isomer, unassigned) [103 (P2)]",C (RLU 0.0 μM-3.5 μM)
16,"C[C@H](Oc1cc(-n2nc(C#N)c3c2[C@@H](OC24CC(C(=O)O)(C2)C4)CCC3)ccc1F)c1ccc2c(c1)OC(F)(F)O2 (single isomer, unassigned) [105 (P1)]",B (RLU 3.5 μM-5.0 μM)
17,"C[C@H](Oc1cc(-n2nc(C#N)c3c2[C@H](OC24CC(C(=O)O)(C2)C4)CCC3)ccc1F)c1ccc2c(c1)OC(F)(F)O2 (single isomer, unassigned) [105 (P2)]",B (RLU 3.5 μM-5.0 μM)
18,"C[C@H](Nc1cc(-n2nc(C#N)c3c2[C@@H](OC24CC(C(=O)O)(C2)C4)CCC3)ccc1F)c1ccc2c(c1)OC(F)(F)O2 (single isomer, unassigned) [106 (P1)]",B (RLU 3.5 μM-5.0 μM)
19,"C[C@H](Nc1cc(-n2nc(C#N)c3c2[C@H](OC24CC(C(=O)O)(C2)C4)CCC3)ccc1F)c1ccc2c(c1)OC(F)(F)O2 (single isomer, unassigned) [106 (P2)]",C (RLU 0.0 μM-3.5 μM)
20,"C[C@H](Nc1cc(-n2nc(C#N)c3c2[C@@H](OC24CC(C(=O)O)(C2)C4)CCC3)ncc1F)c1ccc2c(c1)OC(F)(F)O2 (single isomer, unassigned) [107 (P1)]",C (RLU 0.0 μM-3.5 μM)
21,"C[C@H](Nc1cc(-n2nc(C#N)c3c2[C@H](OC24CC(C(=O)O)(C2)C4)CCC3)ncc1F)c1ccc2c(c1)OC(F)(F)O2 (single isomer, unassigned) [107 (P2)]",C (RLU 0.0 μM-3.5 μM)
22,"C[C@H](Nc1nc(-n2nc(C#N)c3c2[C@@H](OC24CC(C(=O)O)(C2)C4)CCC3)ccc1F)c1ccc2c(c1)OC(F)(F)O2 (single isomer, unassigned) [108 (P1)]",C (RLU 0.0 μM-3.5 μM)
23,"C[C@H](Nc1nc(-n2nc(C#N)c3c2[C@H](OC24CC(C(=O)O)(C2)C4)CCC3)ccc1F)c1ccc2c(c1)OC(F)(F)O2 (single isomer, unassigned) [108 (P2)]",C (RLU 0.0 μM-3.5 μM)
24,"C[C@H](Oc1cc(-n2nc(C(F)(F)F)c3c2[C@@H](Oc2ccc(C(=O)O)cc2)CN(C)C3)ccn1)c1ccc2c(c1)OC(F)(F)O2 (single isomer, unassigned) [115 (P1)]",B (RLU 3.5 μM-5.0 μM)
25,"C[C@H](Oc1cc(-n2nc(C(F)(F)F)c3c2[C@H](Oc2ccc(C(=O)O)cc2)CN(C)C3)ccn1)c1ccc2c(c1)OC(F)(F)O2 (single isomer, unassigned) [115 (P2)]",C (RLU 0.0 μM-3.5 μM)
26,"C[C@H](Oc1cccc(-n2nc(C(F)(F)F)c3c2[C@@H](C(=O)N2CCC(C(=O)O)CC2)CCC3)c1)c1ccc2c(c1)OC(F)(F)O2 (single isomer, unassigned) [120 (P1)]",B (RLU 3.5 μM-5.0 μM)
27,"C[C@H](Oc1cccc(-n2nc(C(F)(F)F)c3c2[C@H](C(=O)N2CCC(C(=O)O)CC2)CCC3)c1)c1ccc2c(c1)OC(F)(F)O2 (single isomer, unassigned) [120 (P2)]",C (RLU 0.0 μM-3.5 μM)
28,"C[C@H](Oc1cncc(-n2nc(C(F)(F)F)c3c2[C@@H](C(=O)N2CCC(C(=O)O)CC2)CCC3)c1)c1ccc2c(c1)OC(F)(F)O2 (single isomer, unassigned) [122 (P1)]",C (RLU 0.0 μM-3.5 μM)
29,"C[C@H](Oc1cncc(-n2nc(C(F)(F)F)c3c2[C@H](C(=O)N2CCC(C(=O)O)CC2)CCC3)c1)c1ccc2c(c1)OC(F)(F)O2 (single isomer, unassigned) [122 (P2)]",B (RLU 3.5 μM-5.0 μM)
30,"C[C@H](Oc1cncc(-n2nc(C(F)(F)F)c3c2[C@@H](CN2CCC(C(=O)O)CC2)CCC3)c1)c1ccc2c(c1)OC(F)(F)O2 (single isomer, unassigned) [124 (P1)]",B (RLU 3.5 μM-5.0 μM)
